Results taken from patent US7758851B2, “Preservative systems and their use in cosmetic preparations” (Laboratorios Miret, S.A., priority 2001, dated 2010).

System: Aerobes
Assay: Antimicrobial Effectiveness Testing (USP 24) of preserved cosmetic formulations, count of aerobes
Type: cell-based
Conditions: Example 1, oil in water emulsion with non-ionic surfactant; 0 hours
Text: (§1) Procedure to Evaluate the Efficacv of the Preservative System
(§2) This assay consists on the contamination of the formulations to be protected with a mixed inoculum of 10^8 cfu/ml concentration, in each of the micro-organisms, and see the variation of the viable cells in time. This mixed inoculum is composed of the following micro-organisms:
(§3) The cosmetic composition which is the subject of the investigation is divided into containers with 50 g of product for each flask. Each container is inoculated with 0.5 ml of the inoculum (10^8 cfu/ml). The target concentration is 10^6 cfu/mL, approximately. All the containers are kept at a temperature between 20-25° C. and are protected against light.
(§4) The level of the microbial contamination is determined at 0 hours and after 7 days, 14 days and 28 days. The number of colonies is determined by dilution in buffer peptone with the appropriate neutraliser agent of the preservative. The culture media used for counting the micro-organisms were: Soya triptone agar (35-37° C., 48 hours) for the determination of bacteria; and Sabouraud agar with chloramphenicol for fungi and yeast (25° C., 3-5 days).
(§5) According to Antimicrobial Effectiveness Testing USP 24th Edition, 1999 (pp. 1809-1811), an antimicrobial preservative is considered to be effective in topically used products made with aqueous bases or vehicles, non-sterile nasal products and emulsions, including those applied to mucous membranes, if: • not less than 2,0 logarithm reduction from the initial calculated bacteria's count at 14 days is reached and no increase from the 14 days' count is detected after 28 days; and • no increase from the initial calculated count of yeast and moulds is observed.

| Compound | Aerobes, Initial |
| --- | --- |
| O=[N+]([O-])C(Br)(CO)CO [compound 2] | 1.2 · 10^6 |
| ClC=CC[N+]12CN3CN(CN(C3)C1)C2.[Cl-] [compound 8] | 4.8 · 10^6 |
| CC1(C)C(=O)N(CO)C(=O)N1CO [compound 4] | 1.5 · 10^6 |

Same assay, conditions: Example 1, oil in water emulsion with non-ionic surfactant; 7 days

| Compound | Aerobes, 7 days |
| --- | --- |
| O=[N+]([O-])C(Br)(CO)CO [compound 2] | 2.1 · 10^3 |
| ClC=CC[N+]12CN3CN(CN(C3)C1)C2.[Cl-] [compound 8] | 7.2 · 10^3 |
| CC1(C)C(=O)N(CO)C(=O)N1CO [compound 4] | 4.7 · 10^3 |

Same assay, conditions: Example 1, oil in water emulsion with non-ionic surfactant; 14 days

| Compound | Aerobes, 14 days |
| --- | --- |
| O=[N+]([O-])C(Br)(CO)CO [compound 2] | 7.9 · 10^2 |
| ClC=CC[N+]12CN3CN(CN(C3)C1)C2.[Cl-] [compound 8] | 5.3 · 10^2 |
| CC1(C)C(=O)N(CO)C(=O)N1CO [compound 4] | 8.5 · 10^2 |

Same assay, conditions: Example 2, oil in water emulsion with ionic emulsifier; 0 hours

| Compound | Aerobes, Initial |
| --- | --- |
| O=[N+]([O-])C(Br)(CO)CO [compound 2] | 4.5 · 10^6 |
| ClC=CC[N+]12CN3CN(CN(C3)C1)C2.[Cl-] [compound 8] | 4.6 · 10^6 |
| CC1(C)C(=O)N(CO)C(=O)N1CO [compound 4] | 5.2 · 10^6 |

Same assay, conditions: Example 2, oil in water emulsion with ionic emulsifier; 7 days

| Compound | Aerobes, 7 days |
| --- | --- |
| O=[N+]([O-])C(Br)(CO)CO [compound 2] | 2.1 · 10^4 |
| ClC=CC[N+]12CN3CN(CN(C3)C1)C2.[Cl-] [compound 8] | 7.2 · 10^3 |
| CC1(C)C(=O)N(CO)C(=O)N1CO [compound 4] | 4.7 · 10^3 |

Same assay, conditions: Example 2, oil in water emulsion with ionic emulsifier; 14 days

| Compound | Aerobes, 14 days |
| --- | --- |
| O=[N+]([O-])C(Br)(CO)CO [compound 2] | 3.8 · 10^3 |
| ClC=CC[N+]12CN3CN(CN(C3)C1)C2.[Cl-] [compound 8] | 9.8 · 10^2 |
| CC1(C)C(=O)N(CO)C(=O)N1CO [compound 4] | 8.7 · 10^2 |

Same assay, conditions: Example 3, water in oil emulsion with non-ionic emulsifier; 0 hours

| Compound | Aerobes, Initial |
| --- | --- |
| O=[N+]([O-])C(Br)(CO)CO [compound 2] | 3.3 · 10^6 |
| ClC=CC[N+]12CN3CN(CN(C3)C1)C2.[Cl-] [compound 8] | 4.2 · 10^6 |
| CC1(C)C(=O)N(CO)C(=O)N1CO [compound 4] | 5.6 · 10^6 |

Same assay, conditions: Example 3, water in oil emulsion with non-ionic emulsifier; 7 days

| Compound | Aerobes, 7 days |
| --- | --- |
| O=[N+]([O-])C(Br)(CO)CO [compound 2] | 5.7 · 10^3 |
| ClC=CC[N+]12CN3CN(CN(C3)C1)C2.[Cl-] [compound 8] | 2.7 · 10^3 |
| CC1(C)C(=O)N(CO)C(=O)N1CO [compound 4] | 4.7 · 10^3 |

Same assay, conditions: Example 3, water in oil emulsion with non-ionic emulsifier; 14 days

| Compound | Aerobes, 14 days |
| --- | --- |
| O=[N+]([O-])C(Br)(CO)CO [compound 2] | 2.8 · 10^3 |
| ClC=CC[N+]12CN3CN(CN(C3)C1)C2.[Cl-] [compound 8] | 9.4 · 10^2 |
| CC1(C)C(=O)N(CO)C(=O)N1CO [compound 4] | 4.3 · 10^2 |

System: Yeast
Assay: Antimicrobial Effectiveness Testing (USP 24) of preserved cosmetic formulations, count of yeast
Type: cell-based, Candida albicans ATCC 10231
Conditions: Example 1, oil in water emulsion with non-ionic surfactant; 0 hours
Text: as §1, §2, §3, §4, §5

| Compound | Yeast, Initial |
| --- | --- |
| O=[N+]([O-])C(Br)(CO)CO [compound 2] | 3.4 · 10^4 |
| ClC=CC[N+]12CN3CN(CN(C3)C1)C2.[Cl-] [compound 8] | 3.4 · 10^4 |
| CC1(C)C(=O)N(CO)C(=O)N1CO [compound 4] | 5.6 · 10^4 |

Same assay, conditions: Example 1, oil in water emulsion with non-ionic surfactant; 7 days

| Compound | Yeast, 7 days |
| --- | --- |
| O=[N+]([O-])C(Br)(CO)CO [compound 2] | 1.7 · 10^2 |
| ClC=CC[N+]12CN3CN(CN(C3)C1)C2.[Cl-] [compound 8] | 1.6 · 10^2 |
| CC1(C)C(=O)N(CO)C(=O)N1CO [compound 4] | 3.1 · 10^2 |

Same assay, conditions: Example 1, oil in water emulsion with non-ionic surfactant; 14 days

| Compound | Yeast, 14 days |
| --- | --- |
| O=[N+]([O-])C(Br)(CO)CO [compound 2] | <9.9 · 10^1 |
| ClC=CC[N+]12CN3CN(CN(C3)C1)C2.[Cl-] [compound 8] | <9.9 · 10^1 |
| CC1(C)C(=O)N(CO)C(=O)N1CO [compound 4] | <9.9 · 10^1 |

Same assay, conditions: Example 2, oil in water emulsion with ionic emulsifier; 0 hours

| Compound | Yeast, Initial |
| --- | --- |
| O=[N+]([O-])C(Br)(CO)CO [compound 2] | 2.9 · 10^4 |
| ClC=CC[N+]12CN3CN(CN(C3)C1)C2.[Cl-] [compound 8] | 1.9 · 10^4 |
| CC1(C)C(=O)N(CO)C(=O)N1CO [compound 4] | 1.8 · 10^4 |

Same assay, conditions: Example 2, oil in water emulsion with ionic emulsifier; 7 days

| Compound | Yeast, 7 days |
| --- | --- |
| O=[N+]([O-])C(Br)(CO)CO [compound 2] | 8.9 · 10^2 |
| ClC=CC[N+]12CN3CN(CN(C3)C1)C2.[Cl-] [compound 8] | 5.9 · 10^2 |
| CC1(C)C(=O)N(CO)C(=O)N1CO [compound 4] | 2.8 · 10^2 |

Same assay, conditions: Example 2, oil in water emulsion with ionic emulsifier; 14 days

| Compound | Yeast, 14 days |
| --- | --- |
| O=[N+]([O-])C(Br)(CO)CO [compound 2] | 4.0 · 10^2 |
| ClC=CC[N+]12CN3CN(CN(C3)C1)C2.[Cl-] [compound 8] | <9.9 · 10^1 |
| CC1(C)C(=O)N(CO)C(=O)N1CO [compound 4] | <9.9 · 10^1 |

Same assay, conditions: Example 3, water in oil emulsion with non-ionic emulsifier; 0 hours

| Compound | Yeast, Initial |
| --- | --- |
| O=[N+]([O-])C(Br)(CO)CO [compound 2] | 5.9 · 10^4 |
| ClC=CC[N+]12CN3CN(CN(C3)C1)C2.[Cl-] [compound 8] | 5.9 · 10^4 |
| CC1(C)C(=O)N(CO)C(=O)N1CO [compound 4] | 4.8 · 10^4 |

Same assay, conditions: Example 3, water in oil emulsion with non-ionic emulsifier; 7 days

| Compound | Yeast, 7 days |
| --- | --- |
| O=[N+]([O-])C(Br)(CO)CO [compound 2] | 8.9 · 10^2 |
| ClC=CC[N+]12CN3CN(CN(C3)C1)C2.[Cl-] [compound 8] | 5.9 · 10^2 |
| CC1(C)C(=O)N(CO)C(=O)N1CO [compound 4] | 2.8 · 10^2 |

Same assay, conditions: Example 3, water in oil emulsion with non-ionic emulsifier; 14 days

| Compound | Yeast, 14 days |
| --- | --- |
| O=[N+]([O-])C(Br)(CO)CO [compound 2] | 4.0 · 10^2 |
| ClC=CC[N+]12CN3CN(CN(C3)C1)C2.[Cl-] [compound 8] | <9.9 · 10^1 |
| CC1(C)C(=O)N(CO)C(=O)N1CO [compound 4] | <9.9 · 10^1 |

System: Fungi
Assay: Antimicrobial Effectiveness Testing (USP 24) of preserved cosmetic formulations, count of fungi
Type: cell-based, Aspergillus niger ATCC 16404
Conditions: Example 1, oil in water emulsion with non-ionic surfactant; 0 hours
Text: as §1, §2, §3, §4, §5

| Compound | Fungi, Initial |
| --- | --- |
| O=[N+]([O-])C(Br)(CO)CO [compound 2] | 1.5 · 10^5 |
| ClC=CC[N+]12CN3CN(CN(C3)C1)C2.[Cl-] [compound 8] | 1.8 · 10^5 |
| CC1(C)C(=O)N(CO)C(=O)N1CO [compound 4] | 1.6 · 10^5 |

Same assay, conditions: Example 1, oil in water emulsion with non-ionic surfactant; 7 days

| Compound | Fungi, 7 days |
| --- | --- |
| O=[N+]([O-])C(Br)(CO)CO [compound 2] | 1.2 · 10^3 |
| ClC=CC[N+]12CN3CN(CN(C3)C1)C2.[Cl-] [compound 8] | 1.3 · 10^3 |
| CC1(C)C(=O)N(CO)C(=O)N1CO [compound 4] | 3.2 · 10^3 |

Same assay, conditions: Example 1, oil in water emulsion with non-ionic surfactant; 14 days

| Compound | Fungi, 14 days |
| --- | --- |
| O=[N+]([O-])C(Br)(CO)CO [compound 2] | <9.9 · 10^1 |
| ClC=CC[N+]12CN3CN(CN(C3)C1)C2.[Cl-] [compound 8] | <9.9 · 10^1 |
| CC1(C)C(=O)N(CO)C(=O)N1CO [compound 4] | <9.9 · 10^1 |

Same assay, conditions: Example 2, oil in water emulsion with ionic emulsifier; 0 hours

| Compound | Fungi, Initial |
| --- | --- |
| O=[N+]([O-])C(Br)(CO)CO [compound 2] | 1.5 · 10^5 |
| ClC=CC[N+]12CN3CN(CN(C3)C1)C2.[Cl-] [compound 8] | 1.8 · 10^5 |
| CC1(C)C(=O)N(CO)C(=O)N1CO [compound 4] | 1.4 · 10^5 |

Same assay, conditions: Example 2, oil in water emulsion with ionic emulsifier; 7 days

| Compound | Fungi, 7 days |
| --- | --- |
| O=[N+]([O-])C(Br)(CO)CO [compound 2] | 8.5 · 10^3 |
| ClC=CC[N+]12CN3CN(CN(C3)C1)C2.[Cl-] [compound 8] | 5.3 · 10^3 |
| CC1(C)C(=O)N(CO)C(=O)N1CO [compound 4] | 6.2 · 10^3 |

Same assay, conditions: Example 2, oil in water emulsion with ionic emulsifier; 14 days

| Compound | Fungi, 14 days |
| --- | --- |
| O=[N+]([O-])C(Br)(CO)CO [compound 2] | 1.1 · 10^2 |
| ClC=CC[N+]12CN3CN(CN(C3)C1)C2.[Cl-] [compound 8] | <9.9 · 10^1 |
| CC1(C)C(=O)N(CO)C(=O)N1CO [compound 4] | 2.7 · 10^2 |

Same assay, conditions: Example 3, water in oil emulsion with non-ionic emulsifier; 0 hours

| Compound | Fungi, Initial |
| --- | --- |
| O=[N+]([O-])C(Br)(CO)CO [compound 2] | 3.5 · 10^4 |
| ClC=CC[N+]12CN3CN(CN(C3)C1)C2.[Cl-] [compound 8] | 3.8 · 10^4 |
| CC1(C)C(=O)N(CO)C(=O)N1CO [compound 4] | 6.4 · 10^4 |

Same assay, conditions: Example 3, water in oil emulsion with non-ionic emulsifier; 7 days

| Compound | Fungi, 7 days |
| --- | --- |
| O=[N+]([O-])C(Br)(CO)CO [compound 2] | 8.5 · 10^3 |
| ClC=CC[N+]12CN3CN(CN(C3)C1)C2.[Cl-] [compound 8] | 1.3 · 10^3 |
| CC1(C)C(=O)N(CO)C(=O)N1CO [compound 4] | 6.2 · 10^3 |

Same assay, conditions: Example 3, water in oil emulsion with non-ionic emulsifier; 14 days

| Compound | Fungi, 14 days |
| --- | --- |
| O=[N+]([O-])C(Br)(CO)CO [compound 2] | <9.9 · 10^1 |
| ClC=CC[N+]12CN3CN(CN(C3)C1)C2.[Cl-] [compound 8] | <9.9 · 10^1 |
| CC1(C)C(=O)N(CO)C(=O)N1CO [compound 4] | <9.9 · 10^1 |
